For assay [1], the system named is cisplatin induced vestibulotoxicity. Put plainly: Induced deficits of vestibular behavior after transtympanic cisplatin (vestibular deficit score). The format is in vivo, rat. As to conditions: for time after the lesion at which protective effects are first observed: effects persist over the following days. As to the method:
Vestibular deficit associated behaviors were scored on a scale from 0 to 4, respectively ranging from normal behavior (rating 0) to maximal identified vestibular impairment (rating 4). […] Rats were scored for vestibular deficits after transtympanic injection of cisplatin (50 μl, 2 mg/ml) and, evaluated from 4 to 336 hrs after the injection (FIG. 4). Scores were expressed as mean (±sem). For preventive treatment, injection of cimetidine (i.p., 12 mg/kg) was injected 4 hours before the transtympanic injection of cisplatin. Sham animals received saline (i.p) 4 hours before the lesion. To focus on the preventive action of transtympanic injection of the compounds of the invention in the first 72 hours, ototoxicity is induced by a transtympanic injection (50 μl) of cisplatin (2 mg/ml in saline; 6.7 mM) and a determined ratio of corresponding molar dose of compounds are premixed and injected transtympanically with cisplatin. For example, for the dose ratio 1/2 of compound/cisplatin, a solution of 3.5 mM of compound of interest in addition to the 6.7 mM of cisplatin in saline is prepared and, 50 μl of this mixed saline solution is injected transtympanically at TO. Different control animals are run in parallel: saline only, cisplatin (6.7 mM) only to control the initial lesion, and the compounds of interest alone at different doses in saline to control potential ototoxicity of the compound independently of cisplatin, are with cisplatin. […] For transtympanic experiments, rats were scored for vestibular deficits just before the transtympanic injection, TO and, evaluated at 24, 48 & 72 hours after the injection (FIGS. 5 to 11). Scores were expressed as mean (±sem).

The test system of another assay is vestibular hair cells. In kind it is cell-based, rat. As to conditions: co-treatment with cimetidine (1000 μM) and cisplatin for 48 hrs, FIG. 3. Here is the method:
Vestibular end organs were aseptically removed from animals. Explants composed of sensory and nonsensory epithelia were placed on 5 μl of growth factor-reduced Matrigel on laminin (10 μg/ml)-coated glass coverslips. These preparations were incubated for 30 min at 37° C. in a 95%/5% O2/CO2 atmosphere at saturating moisture. Explants were then cultured in DMEM and F12 (50%/50% v/v) media supplemented with N2 mixture (2%). The medium was renewed every 4 d. […] Treated cultures were then fixed with PAF 4% for 1 hr. Labeling of hair bundles was processed using Alex488-conjugated phalloidin (1:700) overnight. After rinsing with PBS, cultures were mounted in Moviol (Calbiochem). Labelling was observed and image digitalized using an apotome microscope (Zeiss). Hair bundles per utricle were quantified using ImageJ software. Statistical analysis was processed with SigmaPlot software (Systat Software). Final image processing was performed with Adobe Photoshop software.

Setting [2] is: transtympanic injection, FIGS. 5 to 11.
Where [3] appears, read: transtympanic injection premixed with cisplatin, rats, FIGS. 5 to 11.

In the case of `COCCCOc1ccnc(C[S+]([O-])c2nc3ccccc3[nH]2)c1C` (stereo not shown) [rabeprazole], the “time after the lesion at which protective effects are first observed” value (“time after the lesion” for short) in assay [1] (setting [2]) worked out at 24 h.
In the case of `CN/C(=N/CCSCc1nc[nH]c1C)NC#N` [cimetidine], the “effect on cisplatin-induced vestibular hair cell loss in vitro” value with vestibular hair cells is “reduces vestibular hair cell loss”. The “effect on vestibular toxicity and behavioral deficits induced by cisplatin” value (“effect … by cisplatin” below) is “reduces the vestibular toxicity and behavioral deficits” in assay [1] (adult rats, systemic (i.p., 12 mg/kg) pretreatment 4 hrs before transtympanic cisplatin, FIG. 4); “reduces the vestibular toxicity and behavioral deficits” in assay [1] (setting [3]). Also, the “time after the lesion” value in assay [1] (systemic (i.p.) pretreatment t-4 hrs, FIG. 4) stood at 48 h; in assay [1] (setting [2]), 24 h.
Consider `Cc1c(OCC(F)(F)F)ccnc1C[S+]([O-])c1nc2ccccc2[nH]1` (stereo not shown) [lansoprazole], for which the “effect … by cisplatin” value in assay [1] (setting [3]) was “reduces the vestibular toxicity and behavioral deficits”. In addition, the “time after the lesion” value in assay [1] (setting [2]) was found to be 24 h.
With `COc1ccc2[nH]c([S+]([O-])Cc3ncc(C)c(OC)c3C)nc2c1` (stereo not shown) [omeprazole], the “time after the lesion” value in assay [1] (setting [2]) came out at 24 h.
For `CNC(=C[N+](=O)[O-])NCCSCc1csc(CN(C)C)n1` [nizatidine], the “effect … by cisplatin” value in assay [1] (setting [3]) was “reduces the vestibular toxicity and behavioral deficits”. For the same compound, in assay [1] (setting [2]), the “time after the lesion” value stood at 24 h.
As for `CNC(=C[N+](=O)[O-])NCCSCc1ccc(CN(C)C)o1` [ranitidine], in assay [1] (setting [2]), the “time after the lesion” value is 24 h.
On the same count and under the same terms, under `COc1ccnc(C[S+]([O-])c2nc3ccc(OC(F)F)cc3[nH]2)c1OC` (stereo not shown) [pantoprazole] stands 24 h.

The values are drawn from patent US20150087677A1, “METHODS FOR TREATING VESTIBULOTOXICTY” (priority 2012, published 2015).
